Assay results published in patent US6399377B1, “Use of anti-sense sequences to increase responsiveness to gene amplification” (priority 1999, dated 2002).

System: SBP13-30 CHO cells
Experiment: Acquired sensitivity to MTX of plasmid-transfected cells, crystal violet staining
Assay type: cell-based, chinese hamster
Conditions: 9 μM MTX, 0 μg DNA (non-transfected cells)
Experimental: In order to assess the level of expression of the anti-sense DHFR sequence and whether its expression effectively blocks DHFR+ expression i.e. renders the cells more responsive/sensitive to MTX treatment, SBP13-30 CHO cells subjected to transfections with three different plasmid concentrations of adHFR2/Neo 0 (control), 100 and 500 μg plasmid DNA, were grown in the absence (controls) or in the presence of MTX (9 μM). Equal amounts of cells from each of the transfections were plated onto duplicate sets of Petri dishes containing standard CHO culture medium, one set receiving cells treated with MTX and the other set receiving untreated cells. When the cells in the dishes without MTX approached confluent growth, the experiment was terminated and the surviving cells were visualized by staining with crystal violet.
As expected, with 0 μM MTX, heavy staining was observed. The staining was moderate-to-heavy in the 9 μM MTX/0 μg DNA dish. […] Cells transfected with high amounts of plasmid (500 μg plasmid DNA/dish) are more sensitive to MTX than cells transfected with lower amounts of plasmid (100 μg plasmid DNA/dish) or the non-transfected control cells (0 μg plasmid/dish). Thus, it is clear that the anti-sense DHFR plasmid successfully transfected the CHO cells and was expressed in these cells. […] In other words, the greater the DHFR^+ inhibition, the greater the MTX toxicity.

## CN(Cc1cnc2nc(N)nc(N)c2n1)c1ccc(C(=O)N[C@@H](CCC(=O)O)C(=O)O)cc1 [MTX, methotrexate]
  crystal violet staining of surviving cells: moderate-to-heavy
